Source: patent US20260184712A1, “Heterocyclic Compounds as ENT Inhibitors and Compounds for Use in the Treatment of Cancers” (iTeos Belgium SA, priority 2022, published 2026)

Key:
[1] = target: T1, human ENT1 (Homo sapiens, UniProt Q99808); assay: ENT1 binding assay (competition with Sahenta-DY647 on JAR cells); settings: competition with SAHENTA-DY647 binding; IC50 categorized; read-out: Binding Assay IC50
T1 construct: JAR cells expressing ENT1 were purchased from ATCC; host or cells: JAR cells
T1 sequence (Q99808 1-456): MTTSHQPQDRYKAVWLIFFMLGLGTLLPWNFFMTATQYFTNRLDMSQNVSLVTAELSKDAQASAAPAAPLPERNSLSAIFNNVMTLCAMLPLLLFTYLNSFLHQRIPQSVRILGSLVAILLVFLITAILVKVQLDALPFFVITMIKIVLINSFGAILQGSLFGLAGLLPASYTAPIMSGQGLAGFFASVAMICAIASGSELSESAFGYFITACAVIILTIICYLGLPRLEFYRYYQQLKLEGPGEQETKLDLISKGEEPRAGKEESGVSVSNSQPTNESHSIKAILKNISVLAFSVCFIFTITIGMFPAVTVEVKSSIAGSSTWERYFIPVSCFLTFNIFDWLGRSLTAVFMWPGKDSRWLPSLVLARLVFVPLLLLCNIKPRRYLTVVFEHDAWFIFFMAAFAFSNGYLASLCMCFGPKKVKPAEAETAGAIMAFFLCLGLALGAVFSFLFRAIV
How it was run: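 Whole-cell competition on JAR cells (native ENT1): 50,000 cells pre-incubated 30 min at 4 °C with compound in HBSS/10 mM Hepes/0.1% BSA, then 100 nM Sahenta-DY647 added for 30 min at 4 °C. After washing, fluorescence (Ex 630/Em 670 nm) read; IC50 from sigmoidal fit, averaged as pIC50.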

[2] = tested on: stimulated primary human T cells; assay: T cell proliferation assay, Condition A (X-VIVO15); format: cell-based; settings: Homo sapiens, T-cell, 96 h; Condition A: X-VIVO15 medium; anti-CD3/anti-CD28 beads, ATP, 4 days; CFSE-lo T cells
Method: (§1) The goal of this study was to determine the potency of ENT1 inhibitors by measuring the rescued proliferation of stimulated primary human T cells incubated in the presence of 100 uM Adenosine triphosphate (ATP), in baseline conditions (condition A) or in the presence of various proteins known to bind small molecules (condition B).
(§2) Venous blood from healthy volunteers, all of whom signed an informed consent approved by the Ethics Committee (FOR—UIC—BV-050-01-01 ICF_HBS_HD Version 5.0), was obtained by ImmuneHealth (Centre Hospitalier Universitaire Tivoli, La Louviere, Belgium). Mononuclear cells were collected by density gradient centrifugation, using SepMate-50 tubes (StemCell Technologies, Grenoble, France) and Lymphoprep (Stemcell Technologies) according to the manufacturer's instructions. CD3+ T cells were isolated by immunomagnetic negative selection, using the EasySep Human T Cell Isolation Kit (StemCell Technologies) as per the manufacturer's instructions. CD3+ T cells were stored in heat inactivated FBS (hiFBS; Gibco, ThermoFisher Scientific, Merelbeke, Belgium) and 10% DMSO in liquid nitrogen.
(§3) Purified human CD3+ T cells were thawed and washed once with RPMI1640 medium, UltraGlutamine (Lonza, Verviers, Belgium) containing 10% hiFBS. Cells were resuspended in PBS containing 10% hiFBS at 1×10^7 cells/ml. One volume of cells was combined with a matching volume of 2 μM CFSE solution in PBS, mixed well by pipetting, and incubated at room temperature for 5 minutes under rotation and protected from light. Excess CFSE was quenched by addition of PBS containing 10% hiFBS, and the cells were centrifuged (300×rcf, 7 minutes) and resuspended in X-VIVO15. Cells were again centrifuged and resuspended in X-VIVO15 for counting.
(§4) Cells were resuspended at 1.6×10^6 cells/mL in X-VIVO15 medium (Condition A) or X-VIVO15 medium containing 4% (v/v) HSA (Sigma-Aldrich, Diegem, Belgium) and 0.2% (v/v) ai-Acid Glycoprotein (Sigma-Aldrich, Diegem, Belgium) (Condition B).
(§5) […] of cell suspension (2×10^4 cells) was added to wells of sterile flat-bottom 384-well plates. Cells were activated by adding […] of anti-CD3 anti-CD28 coated microbeads (Dynabeads human T-activator CD3/CD28; Life Technologies, Paisley, UK) suspended in X-VIVO15 medium or X-VIVO15 medium containing 4% (v/v) HSA and 0.2% (v/v) ai-Acid Glycoprotein at a ratio of one microbead per two cells. Serial dilutions of the ENT1 inhibitors were conducted in X-VIVO15 medium and […] of the diluent was added to the wells. Cells were mixed by pipetting up and down and pre-incubated for 30 minutes in a 37° C. humidified tissue culture incubator with 5% CO2. After pre-incubation, cells were cultured in the presence or absence of ATP (Sigma-Aldrich) at a final concentration of […]. The final well volume was 50 μl in all cases. Experiments were performed in biological duplicates. Cells were mixed by pipetting up and down and incubated for 4 days in a 37° C. humidified tissue culture incubator with 5% CO2.
(§6) Samples were run on a BD LSR Fortessa FACS machine (BD FACSDiva Software v9.0.1). Data were analyzed using FlowJo (BD, v10.7.1). T cell proliferation was determined by measuring the frequency of ‘CFSE^lo’ (i.e. CFSE-diluted).
(§7) T cell proliferation data were analyzed using FlowJo software (Version 10.6.2). Dead cells and cellular debris were excluded on the basis of forward and side scatter profile and singlet cells were selected for further analysis.
(§8) T cell proliferation was determined based on the percent CFSE^lo total T cells for each condition. The data were plotted on the y-axis against log molar (M) concentration of ENT1 inhibitors on the x-axis in GraphPad Prism (version 9.0.0). IC50 and IC90 values were generated with the ‘log(agonist) vs. response—Find ECanything(F))’ function with F constrained to 50 or 90, respectively. pICF values were generated by taking the −logECF values.

[3] = tested on: stimulated primary human T cells; assay: T cell proliferation assay, Condition B (X-VIVO15, 2% HSA and 0.1% AAG); format: cell-based; settings: Homo sapiens, T-cell, 96 h; Condition B: X-VIVO15 medium containing HSA and α1-Acid Glycoprotein; anti-CD3/anti-CD28 beads, ATP, 4 days; CFSE-lo T cells
Method: as §1
Condition B: X-VIVO15, 2% Human Serum Albumin (HSA) and 0.1% α-1-Acid Glycoprotein (AAG)
as §2, §3, §4, §5, §6, §7, §8

C[C@H]1O[C@@H](n2c(N)nc3c(N4CCc5ccc([N+](=O)[O-])cc5C4)ncnc32)[C@H](O)[C@@H]1O [Compound 145]
IC50 [1]: < 1 nM
IC50 [2]: 1 to 20 nM
IC50 [3]: 20 to 500 nM

C[C@H]1O[C@@H](n2cnc3c(OCc4ccc(OC(F)F)cc4)nc(Cl)nc32)[C@H](O)[C@@H]1O [Compound 161]
IC50 [1]: 1 to 20 nM
IC50 [2]: 1 to 20 nM
IC50 [3]: 20 to 500 nM

C[C@H]1O[C@@H](n2cnc3c(OCc4ccc(OC(F)F)cc4)nc(N)nc32)[C@H](O)[C@@H]1O [Compound 190]
IC50 [1]: 20 to 500 nM
IC50 [2]: 1 to 20 nM
IC50 [3]: > 500 nM

C[C@H]1O[C@@H](n2c(NC3CCOCC3)nc3c(OCc4ccc([N+](=O)[O-])cc4)ncnc32)[C@H](O)[C@@H]1O [Compound 30]
IC50 [1]: < 1 nM
IC50 [2]: < 1 nM
IC50 [3]: 1 to 20 nM

CCNc1nc2c(OCc3ccc([N+](=O)[O-])cc3)ncnc2n1[C@@H]1O[C@H](C)[C@@H](O)[C@H]1O [Compound 20]
IC50 [1]: 1 to 20 nM
IC50 [2]: < 1 nM
IC50 [3]: 20 to 500 nM

C[C@H]1O[C@@H](n2c(NC3CCCC3)nc3c(OCc4ccc(OC(F)F)cc4)ncnc32)[C@H](O)[C@@H]1O [Compound 11]
IC50 [1]: < 1 nM
IC50 [2]: < 1 nM
IC50 [3]: 1 to 20 nM

C[C@H]1O[C@@H](n2c(NC3CCC(F)(F)CC3)nc3c(OCc4ccc([N+](=O)[O-])cc4)ncnc32)[C@H](O)[C@@H]1O [Compound 10]
IC50 [1]: 1 to 20 nM
IC50 [2]: < 1 nM
IC50 [3]: 1 to 20 nM

C[C@H]1O[C@@H](n2c(NC3CCC(O)CC3)nc3c(OCc4ccc(OC(F)F)cc4)ncnc32)[C@H](O)[C@@H]1O (stereo partly drawn) [Compound 53]
IC50 [1]: < 1 nM
IC50 [2]: < 1 nM
IC50 [3]: 1 to 20 nM

C[C@H]1O[C@@H](n2c(NCCCO)nc3c(OCc4ccc(OC(F)F)cc4)ncnc32)[C@H](O)[C@@H]1O [Compound 44]
IC50 [1]: 1 to 20 nM
IC50 [2]: 1 to 20 nM
IC50 [3]: 20 to 500 nM

C[C@H]1O[C@@H](n2c(NC3CCC(F)(F)C3)nc3c(OCc4ccc([N+](=O)[O-])cc4)ncnc32)[C@H](O)[C@@H]1O (stereo partly drawn) [Compound 9]
IC50 [1]: < 1 nM
IC50 [2]: < 1 nM
IC50 [3]: 1 to 20 nM

CC(C)Nc1nc2c(OCc3ccc(C#N)cc3)ncnc2n1[C@@H]1O[C@H](C)[C@@H](O)[C@H]1O [Compound 40]
IC50 [1]: 1 to 20 nM
IC50 [2]: < 1 nM
IC50 [3]: 20 to 500 nM

C[C@H]1O[C@@H](n2c(NC3CCS(=O)(=O)CC3)nc3c(OCc4ccc(OC(F)F)cc4)ncnc32)[C@H](O)[C@@H]1O [Compound 55]
IC50 [1]: < 1 nM
IC50 [2]: < 1 nM
IC50 [3]: 1 to 20 nM

OC[C@H]1O[C@@H](n2c(NC3CCCC3)nc3c(SCc4ccccc4)ncnc32)[C@H](O)[C@@H]1O [Compound 158]
IC50 [1]: 1 to 20 nM
IC50 [2]: 1 to 20 nM
IC50 [3]: 20 to 500 nM

C[C@H]1O[C@@H](n2c(NC3CCCC3)nc3c(OCc4ccc(C#N)c(F)c4)ncnc32)[C@H](O)[C@@H]1O [Compound 89]
IC50 [1]: < 1 nM
IC50 [2]: < 1 nM
IC50 [3]: 20 to 500 nM

C[C@H]1O[C@@H](n2c(NCCO)nc3c(OCc4ccc([N+](=O)[O-])cc4)ncnc32)[C@H](O)[C@@H]1O [Compound 21]
IC50 [1]: 1 to 20 nM
IC50 [2]: 1 to 20 nM
IC50 [3]: 20 to 500 nM

C[C@H]1O[C@@H](n2c(NCc3cnn(C)c3)nc3c(OCc4ccc(C#N)cc4)ncnc32)[C@H](O)[C@@H]1O [Compound 65]
IC50 [1]: 1 to 20 nM
IC50 [2]: 1 to 20 nM
IC50 [3]: 20 to 500 nM

C[C@H]1O[C@@H](n2cnc3c(N(C)Cc4ccc([N+](=O)[O-])cc4)ncnc32)[C@H](O)[C@@H]1O [Compound 177]
IC50 [1]: 20 to 500 nM
IC50 [2]: 20 to 500 nM
IC50 [3]: > 500 nM

C[C@H]1O[C@@H](n2cnc3c(N4CCc5cc([N+](=O)[O-])ccc5C4)ncnc32)[C@H](O)[C@@H]1O [Compound 196]
IC50 [1]: 20 to 500 nM
IC50 [2]: 1 to 20 nM
IC50 [3]: > 500 nM

C[C@H]1O[C@@H](n2c(NC3CCC(O)C3)nc3c(OCc4ccc([N+](=O)[O-])cc4)ncnc32)[C@H](O)[C@@H]1O (stereo partly drawn) [Compound 29]
IC50 [1]: < 1 nM
IC50 [2]: < 1 nM
IC50 [3]: 1 to 20 nM

C[C@H]1O[C@@H](n2cnc3c(NCc4ccc([N+](=O)[O-])cc4)ncnc32)[C@H](O)[C@@H]1O [Compound 185]
IC50 [1]: 20 to 500 nM
IC50 [2]: 20 to 500 nM
IC50 [3]: > 500 nM

C[C@H]1O[C@@H](n2c(NC3CC3)nc3c(OCc4ccc([N+](=O)[O-])cc4)ncnc32)[C@H](O)[C@@H]1O [Compound 26]
IC50 [1]: 1 to 20 nM
IC50 [2]: 1 to 20 nM
IC50 [3]: 20 to 500 nM

C[C@H]1O[C@@H](n2cnc3c(OCc4ccc(Cl)cc4)ncnc32)[C@H](O)[C@@H]1O [Compound 187]
IC50 [1]: 20 to 500 nM
IC50 [2]: 1 to 20 nM
IC50 [3]: > 500 nM

CC(=O)N1CCC(Nc2nc3c(OCc4ccc(OC(F)F)cc4)ncnc3n2[C@@H]2O[C@H](C)[C@@H](O)[C@H]2O)CC1 [Compound 79]
IC50 [1]: < 1 nM
IC50 [2]: < 1 nM
IC50 [3]: 1 to 20 nM

C[C@H]1O[C@@H](n2c(NC3CCOC3)nc3c(OCc4ccc([N+](=O)[O-])cc4)ncnc32)[C@H](O)[C@@H]1O (stereo partly drawn) [Compound 18]
IC50 [1]: 1 to 20 nM
IC50 [2]: < 1 nM
IC50 [3]: 1 to 20 nM
